# Experimental data published in publication PMC4032265 (PLoS ONE, 2014).
# Where two headings read alike, the source gives them in different places.
# Legend:
# α1D adrenergic receptor = target: T1, α1D adrenergic receptor (Homo sapiens, UniProt P25100); assay: PDSP radioligand binding, α1D; conditions: read-out: % inhibition at 10 µM
# T1 sequence (P25100 1-572): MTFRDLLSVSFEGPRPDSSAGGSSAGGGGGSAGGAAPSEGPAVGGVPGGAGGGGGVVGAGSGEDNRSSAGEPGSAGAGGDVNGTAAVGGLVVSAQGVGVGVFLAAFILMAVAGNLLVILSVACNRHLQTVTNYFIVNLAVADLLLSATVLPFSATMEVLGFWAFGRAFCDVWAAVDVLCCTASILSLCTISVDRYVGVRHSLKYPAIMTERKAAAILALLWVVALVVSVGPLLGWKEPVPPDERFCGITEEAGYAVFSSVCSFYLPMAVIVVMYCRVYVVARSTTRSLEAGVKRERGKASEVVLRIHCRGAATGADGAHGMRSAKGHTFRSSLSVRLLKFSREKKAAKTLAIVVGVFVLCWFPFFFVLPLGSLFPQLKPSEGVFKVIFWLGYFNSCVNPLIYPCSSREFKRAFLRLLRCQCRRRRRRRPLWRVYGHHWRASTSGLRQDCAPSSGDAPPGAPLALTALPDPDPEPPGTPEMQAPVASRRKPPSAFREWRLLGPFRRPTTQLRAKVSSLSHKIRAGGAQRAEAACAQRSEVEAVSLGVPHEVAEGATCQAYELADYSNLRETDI
# hA2AAR [1] = target: T2, hA2AAR (Homo sapiens, UniProt P29274); set-up: method as in earlier work; conditions: ref 1-4 of Table S1 (Tosh et al. 2009, 2012); cited from earlier work
# hA1AR [2] = target: T3, hA1AR (Homo sapiens, UniProt P30542); conditions: ref 1-4 of Table S1 (Tosh et al. 2009, 2012); cited from earlier work
# T3 sequence (P30542 1-326): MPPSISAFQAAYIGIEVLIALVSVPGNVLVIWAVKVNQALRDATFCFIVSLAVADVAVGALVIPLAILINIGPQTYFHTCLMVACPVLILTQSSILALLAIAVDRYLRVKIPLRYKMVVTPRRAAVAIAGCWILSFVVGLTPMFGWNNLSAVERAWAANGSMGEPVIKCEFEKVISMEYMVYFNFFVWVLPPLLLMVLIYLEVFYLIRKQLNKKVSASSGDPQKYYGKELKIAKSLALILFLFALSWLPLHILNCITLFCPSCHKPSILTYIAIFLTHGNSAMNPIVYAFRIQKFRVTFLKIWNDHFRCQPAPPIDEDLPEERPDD
# [3] = target: H2 histaminergic receptor (Homo sapiens, UniProt P25021); assay: PDSP radioligand binding, H2; conditions: read-out: % inhibition at 10 µM
# β2 adrenergic receptor = β2 adrenergic receptor (Homo sapiens, UniProt P07550); assay: PDSP radioligand binding, β2; conditions: read-out: % inhibition at 10 µM
# [4] = target: 5HT1E serotonergic receptor (Homo sapiens, UniProt P28566); assay: PDSP radioligand binding, 5HT1E; conditions: read-out: % inhibition at 10 µM
# 5HT2B receptor = 5HT2B receptor (Homo sapiens, UniProt P41595); assay: 5HT2B functional assay, antagonist mode (inhibition of agonist activity); assay type: cell-based; conditions: for % inhibition as antagonist at 5HT2B: 10 µM; for IC50: antagonist mode
# 5HT2C receptor = 5HT2C receptor (Homo sapiens, UniProt P28335); assay: 5HT2C functional assay, antagonist mode (inhibition of agonist activity); assay type: cell-based; conditions: 10 µM
# hA3AR = hA3AR (Homo sapiens, UniProt P0DMS8); assay: Radioligand binding at hA3AR
# hA2AAR [5] = target: T2, hA2AAR; assay: Radioligand binding at hA2AAR; conditions: compounds 8 and 9, measured for this study
# hA1AR [6] = target: T3, hA1AR; assay: Radioligand binding at hA1AR; conditions: compounds 8 and 9, measured for this study
# α2C adrenergic receptor = target: T4, α2C adrenergic receptor (Homo sapiens, UniProt P18825); assay: α2C adrenergic receptor functional assay (antagonist); assay type: cell-based
# T4 sequence (P18825 1-462): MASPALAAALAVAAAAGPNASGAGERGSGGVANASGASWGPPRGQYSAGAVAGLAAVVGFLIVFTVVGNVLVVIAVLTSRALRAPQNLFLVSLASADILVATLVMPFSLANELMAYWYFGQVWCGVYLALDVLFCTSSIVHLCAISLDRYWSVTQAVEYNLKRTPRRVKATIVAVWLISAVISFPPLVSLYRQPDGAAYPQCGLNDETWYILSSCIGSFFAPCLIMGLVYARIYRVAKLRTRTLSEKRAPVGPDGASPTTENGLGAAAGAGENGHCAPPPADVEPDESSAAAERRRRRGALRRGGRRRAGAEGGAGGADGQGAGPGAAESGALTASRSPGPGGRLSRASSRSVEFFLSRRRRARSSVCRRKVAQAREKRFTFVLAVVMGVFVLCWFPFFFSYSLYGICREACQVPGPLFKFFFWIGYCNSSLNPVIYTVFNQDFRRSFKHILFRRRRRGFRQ
# YXα3β4H1 receptor = target: T5, YXα3β4H1 receptor (Homo sapiens, UniProt P30926+P32297); assay: 86Rb+ efflux, nicotinic acetylcholine receptor antagonist activity, YXα3β4H1 cells; assay type: cell-based; conditions: cells expressing YXα3β4H1 receptor
# T5 construct: expressed in transfected cells
# KXα4β2 receptor 2 = target: T6, KXα4β2 receptor 2 (Rattus norvegicus, UniProt P09483+P12390); assay: [3H]epibatidine binding in cells expressing KXα4β2 receptor 2
# T6 construct: expressed in transfected cells
# KXα3β4 receptor 2 = target: T7, KXα3β4 receptor 2 (Rattus norvegicus, UniProt P04757+P12392); assay: 86Rb+ efflux, nicotinic acetylcholine receptor antagonist activity, KXα3β4 receptor 2 cells; assay type: cell-based; conditions: cells expressing KXα3β4 receptor 2
# T7 construct: expressed in transfected cells; host or cells: KXα3β4 receptor 2 (KXα3β4R2) cells
# [7] = read-out: IC50 at 5HT2B receptors (Figure S2)
SMILES,hA2AAR % inhibition (hA2AAR [1]),hA1AR % inhibition (hA1AR [2]),inhibition at 10 µM (α1D adrenergic receptor; single concentration 10 µM) [%],inhibition at 10 µM (β2 adrenergic receptor; single concentration 10 µM) [%],inhibition at 10 µM ([4]; single concentration 10 µM) [%],further results
CNC(=O)[C@@]12C[C@@H]1[C@@H](n1cnc3c(NCc4cccc(Cl)c4)nc(C#Cc4ccc(F)c(F)c4)nc31)[C@H](O)[C@@H]2O [Compound 1],41%±10%,< 10%,,,,inhibition at 10 µM (α1D adrenergic receptor): 3%; inhibition at 10 µM [3]: 34%; inhibition at 10 µM (β2 adrenergic receptor): 0%; inhibition at 10 µM [4]: 12%
CNC(=O)[C@@]12C[C@@H]1[C@@H](n1cnc3c(NCc4cccc(Cl)c4)nc(C#Cc4ccc(F)cc4)nc31)[C@H](O)[C@@H]2O [Compound 2],42%±2%,20%±6%,6,0,0,
CNC(=O)[C@@]12C[C@@H]1[C@@H](n1cnc3c(NCc4cccc(Cl)c4)nc(C#Cc4ccccc4Cl)nc31)[C@H](O)[C@@H]2O [Compound 3],52%±12%,19%±2%,20,0,0,
CNC(=O)[C@@]12C[C@@H]1[C@@H](n1cnc3c(NCc4cccc(Cl)c4)nc(Cl)nc31)[C@H](O)[C@@H]2O [Compound 4],,,0,2,0,"% inhibition as antagonist at 5HT2B (5HT2B receptor): 60%; IC50 (5HT2B receptor; read-out: IC50, inhibition of agonist activity at 5HT2B): 887 nM; IC50 (5HT2B receptor; [7]): 3260 nM; % inhibition as antagonist at 5HT2C (5HT2C receptor): 94%"
CNC(=O)[C@@]12C[C@@H]1[C@@H](n1cnc3c(NC)nc(C#Cc4ccc(F)c(F)c4)nc31)[C@H](O)[C@@H]2O [Compound 5],< 10%,< 10%,0,2,9,
O[C@@H]1[C@H](O)[C@@H]2C[C@@H]2[C@H]1n1cnc2c(NCc3cccc(Cl)c3)nc(C#Cc3ccc(F)c(F)c3)nc21 [Compound 6],,29%±1%,5,0,0,inhibition at 10 µM ([3]; single concentration 10 µM): 0%
O[C@@H]1[C@H](O)[C@@H]2C[C@@H]2[C@H]1n1cnc2c(NCc3cccc(Cl)c3)ncnc21 [Compound 7],,,30,53,0,
Fc1ccc(C#Cc2nc(NCc3cccc(Cl)c3)c3nc[nH]c3n2)cc1F [Compound 8],,,0,0,0,Ki (hA3AR): 120 nM; hA2AAR % inhibition (hA2AAR [5]): < 10%; hA1AR % inhibition (hA1AR [6]): < 10%
Clc1cccc(CNc2nc(Cl)nc3[nH]cnc23)c1 [Compound 9],,,0,0,0,Ki (hA3AR): 165 nM; % inhibition as antagonist at 5HT2B (5HT2B receptor): 26%; IC50 (5HT2B receptor; [7]): 890 nM; IC50 (α2C adrenergic receptor): 2900 nM; % inhibition as antagonist at 5HT2C (5HT2C receptor): 65%; hA2AAR % inhibition (hA2AAR [5]): 37%±1%; hA1AR % inhibition (hA1AR [6]): 45%±3%
O[C@@H]1[C@H](O)[C@@H]2C[C@@H]2[C@H]1n1cnc2c(NC(C3CC3)C3CC3)nc(Cl)nc21 [Compound 10],,,13,2,3,inhibition at 10 µM ([3]; single concentration 10 µM): 13%; IC50 (YXα3β4H1 receptor): 30300 nM; inhibition of [3H]epibatidine binding (KXα4β2 receptor 2): no inhibition; IC50 (KXα3β4 receptor 2): 21200 nM
